{"source": "paper PMC10591846", "about": "(Cell reports, 2023)", "key": {"KLHDC10": {"tested_on": "KLHDC10", "assay": "In vitro peptide binding to KLHDC10", "conditions": "Figure S12"}, "Pirh2": {"target": "T1, Pirh2 (Homo sapiens, UniProt Q96PM5)", "T1 sequence (Q96PM5 1-261)": "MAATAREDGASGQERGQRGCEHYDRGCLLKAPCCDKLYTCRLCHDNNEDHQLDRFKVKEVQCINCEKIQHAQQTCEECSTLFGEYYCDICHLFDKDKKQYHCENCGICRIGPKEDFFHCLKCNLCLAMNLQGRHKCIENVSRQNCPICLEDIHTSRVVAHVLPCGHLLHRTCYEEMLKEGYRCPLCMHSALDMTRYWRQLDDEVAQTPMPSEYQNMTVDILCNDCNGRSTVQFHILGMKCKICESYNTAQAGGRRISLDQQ", "assay": "In vitro peptide binding to Pirh2", "conditions": "Figure S12"}}, "data": [{"sequence": "KHKLEQLRNSCA", "values": [{"measurement": "binding to KLHDC10 in vitro", "setting": "KLHDC10", "value": "did not bind"}, {"measurement": "binding to Pirh2 in vitro", "setting": "Pirh2", "value": "did not bind"}]}]}
